# Measured values taken from paper PMC5988755, “First characterization of a microsporidial triosephosphate isomerase and the biochemical mechanisms of its inactivation to propose a new druggable target” (Scientific Reports, 2018).
# T1: EiTIM (triosephosphate isomerase of E. intestinalis) (Encephalitozoon intestinalis, UniProt E0SA87)
# T1 construct: gene Eint_110100; full length, synthetic codon-optimised gene (silent A479G) in pET-3aHisTEV, E. coli BL21(DE3)pLysS; N-terminal His-tag removed with TEV protease; homodimer
# T1 sequence (E0SA87 1-242): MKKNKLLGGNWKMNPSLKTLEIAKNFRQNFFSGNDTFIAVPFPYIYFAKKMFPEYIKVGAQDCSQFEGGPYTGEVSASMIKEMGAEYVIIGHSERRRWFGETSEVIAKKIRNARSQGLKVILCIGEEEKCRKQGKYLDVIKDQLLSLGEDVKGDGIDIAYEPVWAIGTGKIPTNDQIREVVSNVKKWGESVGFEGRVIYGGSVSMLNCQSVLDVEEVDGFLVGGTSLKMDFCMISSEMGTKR
# B1: EiTIM (triosephosphate isomerase of E. intestinalis) (Encephalitozoon intestinalis ATCC 50506) (protein)
# chain: T1 sequence (E0SA87 1-242)
# Experiments:
# [1] = molecular target: T1, EiTIM (triosephosphate isomerase of E. intestinalis); experiment: residual activity after incubation, alpha-GDH coupled assay (NADH, […] nm); format: biochemical; conditions: covalent; 0.5 mM compound, 2 h at 37 °C; residual activity relative to untreated control; 3 Cys derivatized per subunit
# [2] = molecular target: T1, EiTIM (triosephosphate isomerase of E. intestinalis); experiment: thermal denaturation by CD at […] nm of derivatized enzyme; format: binding; conditions: covalent; 0.5 mM compound, 2 h at 37 °C, excess removed; untreated control Tm 52.8 ± 1.5 °C
# [3] = molecular target: T1, EiTIM (triosephosphate isomerase of E. intestinalis); experiment: residual activity after incubation, alpha-GDH coupled assay (NADH, […] nm); format: biochemical; conditions: covalent (Cys derivatization suggested), 0.5 mg/mL enzyme, 2 h at 37 °C, drug 0-50 μM
# [4] = molecular target: T1, EiTIM (triosephosphate isomerase of E. intestinalis); experiment: as above; format: biochemical; conditions: read-out: 50% inactivation
# purified protein = substrate: O=C[C@H](O)COP(=O)(O)O; experiment: purified protein; conditions: GAP to DHAP direction, 25 °C, 0.2 mM NADH, 0.9 U alpha-GDH, GAP 0.2-10 mM
molecule,measurement,setting,value
CSS(C)(=O)=O [MMTS],Activity (%)^*,[1],17.3 ± 5.5%
same,Tm (°C)^*,[2],49.8 ± 2.1 °C
COCCCOc1ccnc(C[S+]([O-])c2nc3ccccc3[nH]2)c1C (centres unmarked) [rabeprazole],50% inactivation,[3],"sulbutiamine was two- and three-fold more effective than rabeprazole and omeprazole, respectively"
COc1ccc2[nH]c([S+]([O-])Cc3ncc(C)c(OC)c3C)nc2c1 (centres unmarked) [omeprazole],50% inactivation,"[3]; omeprazole pre-activated with acid (HCl, 3 h)","sulbutiamine was two- and three-fold more effective than rabeprazole and omeprazole, respectively"
"O=C(O)c1cc(SSc2ccc([N+](=O)[O-])c(C(=O)O)c2)ccc1[N+](=O)[O-] [DTNB, 5,5′-dithiobis(2-nitrobenzoic acid)]",IC50,[4],25 µM
CC(=C(CCOC(=O)C(C)C)SSC(CCOC(=O)C(C)C)=C(C)N(C=O)Cc1cnc(C)nc1N)N(C=O)Cc1cnc(C)nc1N (stereo in doubt) [sulbutiamine],IC50,[4],2.5 µM
"CS(=O)(=O)SCCS(=O)(=O)O [MTSES, sodium (2-sulfonatoethyl) methanethiosulfonate]",Activity (%)^*,[1],2.4 ± 1.1%
same,Tm (°C)^*,[2],48.6 ± 1.9 °C
B1,Km,purified protein,830 ± 200 µM
same,kcat,purified protein,1680 s⁻¹
same,kcat/Km,purified protein,2e+06 M⁻¹ s⁻¹
